Assay results as given in the NIST ThermoML archive (doi:10.1021/je700261b).

Assay: xn = mol fraction of the nth substance listed
Details: Liquid

CCCCO [butan-1-ol] + O=C=O
Details | mass density [kg/m3]
362.67 K, 7985 kPa, x2 = 0.0251 | 762.59
362.67 K, 9006 kPa, x2 = 0.0251 | 763.64
362.67 K, 10031 kPa, x2 = 0.0251 | 764.7
362.67 K, 11027 kPa, x2 = 0.0251 | 765.69
362.67 K, 12000 kPa, x2 = 0.0251 | 766.65
362.67 K, 13054 kPa, x2 = 0.0251 | 767.68
362.67 K, 14008 kPa, x2 = 0.0251 | 768.61
362.67 K, 14993 kPa, x2 = 0.0251 | 769.57
362.67 K, 16000 kPa, x2 = 0.0251 | 770.52
362.67 K, 17046 kPa, x2 = 0.0251 | 771.48
362.67 K, 17989 kPa, x2 = 0.0251 | 772.34
362.67 K, 19009 kPa, x2 = 0.0251 | 773.27
362.67 K, 20045 kPa, x2 = 0.0251 | 774.19
362.67 K, 21017 kPa, x2 = 0.0251 | 775.08
362.67 K, 22075 kPa, x2 = 0.0251 | 775.99
362.67 K, 23006 kPa, x2 = 0.0251 | 776.82
362.67 K, 24007 kPa, x2 = 0.0251 | 777.69
362.67 K, 25062 kPa, x2 = 0.0251 | 778.61
362.69 K, 2045 kPa, x2 = 0.0857 | 757.33
362.69 K, 3006 kPa, x2 = 0.0857 | 758.53
362.69 K, 3982 kPa, x2 = 0.0857 | 759.72
362.69 K, 5010 kPa, x2 = 0.0857 | 760.91
362.69 K, 5976 kPa, x2 = 0.0857 | 762.09
362.69 K, 6994 kPa, x2 = 0.0857 | 763.25
362.69 K, 7999 kPa, x2 = 0.0857 | 764.42
362.69 K, 8998 kPa, x2 = 0.0857 | 765.51
362.69 K, 10048 kPa, x2 = 0.0857 | 766.67
362.69 K, 11028 kPa, x2 = 0.0857 | 767.74
362.69 K, 11999 kPa, x2 = 0.0857 | 768.75
362.69 K, 12994 kPa, x2 = 0.0857 | 769.85
362.69 K, 14018 kPa, x2 = 0.0857 | 770.91
362.69 K, 15014 kPa, x2 = 0.0857 | 771.91
362.69 K, 15995 kPa, x2 = 0.0857 | 772.93
362.69 K, 17061 kPa, x2 = 0.0857 | 773.98
362.69 K, 18008 kPa, x2 = 0.0857 | 774.96
362.69 K, 19008 kPa, x2 = 0.0857 | 775.88
362.69 K, 20060 kPa, x2 = 0.0857 | 776.81
362.69 K, 21044 kPa, x2 = 0.0857 | 777.83
362.69 K, 22045 kPa, x2 = 0.0857 | 778.82
362.69 K, 23036 kPa, x2 = 0.0857 | 779.68
362.69 K, 24037 kPa, x2 = 0.0857 | 780.65
362.69 K, 25015 kPa, x2 = 0.0857 | 781.57
362.74 K, 14112 kPa, x2 = 0.4972 | 771.83
362.74 K, 15096 kPa, x2 = 0.4972 | 773.91
362.74 K, 15985 kPa, x2 = 0.4972 | 775.76
362.74 K, 17043 kPa, x2 = 0.4972 | 777.9
362.74 K, 18079 kPa, x2 = 0.4972 | 779.94
362.74 K, 19117 kPa, x2 = 0.4972 | 781.94
362.74 K, 20051 kPa, x2 = 0.4972 | 783.68
362.74 K, 21025 kPa, x2 = 0.4972 | 785.45
362.74 K, 22018 kPa, x2 = 0.4972 | 787.27
362.74 K, 23076 kPa, x2 = 0.4972 | 789.13
362.74 K, 24063 kPa, x2 = 0.4972 | 790.85
362.74 K, 25140 kPa, x2 = 0.4972 | 792.64
362.75 K, 21992 kPa, x2 = 0.8663 | 710.63
362.75 K, 23010 kPa, x2 = 0.8663 | 720.36
362.75 K, 24074 kPa, x2 = 0.8663 | 729.68
362.75 K, 25130 kPa, x2 = 0.8663 | 738.23
362.76 K, 15085 kPa, x2 = 0.5965 | 765.37
362.76 K, 16042 kPa, x2 = 0.5965 | 768.34
362.76 K, 17060 kPa, x2 = 0.5965 | 771.36
362.76 K, 18019 kPa, x2 = 0.5965 | 774.09
362.76 K, 19023 kPa, x2 = 0.5965 | 776.91
362.76 K, 20064 kPa, x2 = 0.5965 | 779.68
362.76 K, 21026 kPa, x2 = 0.5965 | 782.15
362.76 K, 22023 kPa, x2 = 0.5965 | 784.67
362.76 K, 23058 kPa, x2 = 0.5965 | 787.18
362.76 K, 24078 kPa, x2 = 0.5965 | 789.61
362.76 K, 25110 kPa, x2 = 0.5965 | 791.98
362.78 K, 6018 kPa, x2 = 0.1842 | 761.83
362.78 K, 6995 kPa, x2 = 0.1842 | 763.16
362.78 K, 8099 kPa, x2 = 0.1842 | 764.64
362.78 K, 9002 kPa, x2 = 0.1842 | 765.81
362.78 K, 10022 kPa, x2 = 0.1842 | 767.06
362.78 K, 10995 kPa, x2 = 0.1842 | 768.34
362.78 K, 12059 kPa, x2 = 0.1842 | 769.68
362.78 K, 13056 kPa, x2 = 0.1842 | 770.87
362.78 K, 14029 kPa, x2 = 0.1842 | 772.05
362.78 K, 15026 kPa, x2 = 0.1842 | 773.24
362.78 K, 16010 kPa, x2 = 0.1842 | 774.38
362.78 K, 17020 kPa, x2 = 0.1842 | 775.53
362.78 K, 18041 kPa, x2 = 0.1842 | 776.68
362.78 K, 19031 kPa, x2 = 0.1842 | 777.79
362.78 K, 20045 kPa, x2 = 0.1842 | 778.9
